From patent publication US9617250B2, “Pyridin-4-yl derivatives” (ACTELION PHARMACEUTICALS LTD., priority 2013, dated 2017)

Key:
human S1P3 receptor = human S1P3 receptor (Homo sapiens (Human), UniProt Q99500); experiment: GTPγS assay to determine EC50 values, S1P3; format: biochemical; settings: comparison in words
circulating lymphocytes = experiment: Assessment of in vivo efficacy: circulating lymphocytes after oral administration; parameters: species or system rat; settings: 6 h after oral administration of 10 mg/kg, normotensive male Wistar rats, compared to vehicle group
Procedure: The efficacy of the compounds of Formula (I) is assessed by measuring the circulating lymphocytes after oral administration of 3 to 30 mg/kg of a compound of Formula (I) to normotensive male Wistar rats. The animals are housed in climate-controlled conditions with a 12 h-light/dark cycle, and have free access to normal rat chow and drinking water. Blood is collected before and 3, 6 and 24 h after drug administration. Full blood is subjected to hematology using Advia Hematology system (Bayer Diagnostics, Zürich, Switzerland).
All data are presented as mean±SEM. Statistical analyses are performed by analysis of variance (ANOVA) using Statistica (StatSoft) and the Student-Newman-Keuls procedure for multiple comparisons. The null hypothesis is rejected when p<0.05.
Lymphocyte counts 6 h after oral administration have been measured for 2 out of 8 exemplified compounds and are in the range of −71% to −73% with an average of −72%.

human S1P3 receptor, sequence (Q99500 whole entry): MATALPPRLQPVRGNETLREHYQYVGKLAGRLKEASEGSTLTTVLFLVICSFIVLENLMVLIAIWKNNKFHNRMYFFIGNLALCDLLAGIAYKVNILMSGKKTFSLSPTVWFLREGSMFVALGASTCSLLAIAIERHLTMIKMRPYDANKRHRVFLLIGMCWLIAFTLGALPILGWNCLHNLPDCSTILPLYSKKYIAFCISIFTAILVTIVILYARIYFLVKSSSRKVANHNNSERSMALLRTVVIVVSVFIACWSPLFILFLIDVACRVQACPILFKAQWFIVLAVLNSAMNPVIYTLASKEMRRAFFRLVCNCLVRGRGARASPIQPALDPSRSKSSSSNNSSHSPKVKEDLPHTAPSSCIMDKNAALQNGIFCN

SMILES	potency on S1P3 receptor compared to closest analog in D1 (human S1P3 receptor)	Lymphocyte counts (circulating lymphocytes) [%]
CCCc1cc(-c2nc(-c3cc(C)c(OC[C@@H](O)CNC(=O)CO)c(CC)c3)no2)ccn1 [Example 2, (S)—N-(3-(2-ethyl-4-(5-(2-propylpyridin-4-yl)-1,2,4-oxadiazol-3-yl)-6-methyl-phenoxy)-2-hydroxypropyl)-2-hydroxyacetamide]	clearly less potent	
CCc1cc(-c2noc(-c3ccnc(C4CCCC4)c3)n2)cc(C)c1OC[C@@H](O)CNC(=O)CO [Example 8, (S)—N-(3-(2-ethyl-4-(5-(2-cyclopentylpyridin-4-yl)-1,2,4-oxadiazol-3-yl)-6-methylphenoxy)-2-hydroxypropyl)-2-hydroxyacetamide]	significantly less potent	−73
CCc1cc(-c2noc(-c3ccnc(C(CC)CC)c3)n2)cc(C)c1OC[C@@H](O)CNC(=O)CO [Example 7, (S)—N-(3-(2-ethyl-4-(5-(2-(pentan-3-yl)-pyridin-4-yl)-1,2,4-oxadiazol-3-yl)-6-methylphenoxy)-2-hydroxypropyl)-2-hydroxyacetamide]	significantly less potent	−71
CCc1cc(-c2noc(-c3ccnc(CC(C)C)c3)n2)cc(C)c1OC[C@@H](O)CNC(=O)CO [Example 5, (S)—N-(3-(2-Ethyl-4-(5-(2-isobutylpyridin-4-yl)-1,2,4-oxadiazol-3-yl)-6-methylphenoxy)-2-hydroxypropyl)-2-hydroxyacetamide]	significantly less potent	
